Data taken from PubChem BioAssay AID2060512 (Molecular Pharmacology Branch, DTP, NCI, 2025).

System: 186277-243-T-J2-PDC complex spheroid viability
Test: Anticancer human tumor 186277-243-T-J2-PDC patient-derived colon adenocarcinoma cell line growth inhibition [GQUAD]
Conditions: for IC50: curve of first compound; for viability, T/C: stronger effect = lower value
Excerpt: DNA G-quadruplex Stabilizer Agents in Combinations in Complex Spheroids
A high-throughput screen of multi-cell type tumor spheroids was designed to identify active combinations of DNA G-quadruplex stabilizer agents and targeted small molecules. Complex spheroids include a stromal component modeled by human endothelial cells (HUVEC) and fibroblasts modeled by human mesenchymal stem cells (MSCs). The concentration ranges selected for each drug and investigational agent were based upon clinically achievable concentrations if the clinical Cmax of the agent was known.
Compounds. The drugs and investigational agents: pidnarulex (CX-5461; NSC782164), APTO-253 (NSC789042), BRACO-19 (NSC847499), peposertib (NSC802822), ceralasertib (NSC780249), elimusertib (NSC800525), camonsertib (NSC841442), AZD-1390 (NSC803789), olaparib (NSC753686), talazoparib (NSC767125), ART-558 (NSC835418), sotorasib (NSC818433), MRTX-1133 (NSC836407), SN-38 (NSC673596), topotecan (NSC609699), etoposide (NSC141540), doxorubicin (NSC123127), gemcitabine (NSC613327), 5-fluorouracil (NSC19893), paclitaxel (NSC125973), vemurafenib (NSC761431), panobinostat (NSC761190), R-306465 (JNJ-16241199; NSC773264), adavosertib (NSC754352), TP-3654 (NSC805149), carboplatin (NSC241240), KSQ-4279 (NSC840948), and staurosporine (NSC755774) were obtained from the National Cancer Institute (NCI) Developmental Therapeutics Program Chemical Repository (34). The FDA-approved anticancer drug set is available from the NCI Developmental Therapeutics Program. […] The stock solutions were prepared in dimethyl sulfoxide (DMSO, Sigma-Aldrich, St. Louis, MO, cat. D2650) at 800-fold the tested concentration and stored at -70 degrees C prior to their use. All drugs and investigational agents were tested over a range starting from a high concentration at or near the clinical Cmax and decreasing in half-log increments. If the clinical Cmax for an agent had not been determined, the highest concentration tested was 10 microM.
2.3 Cell Culture. All cells were maintained in an incubator at 37 degrees C and 5% CO2 with 95% humidity. The PDC lines were cultured according to standard operating procedures established by the NCI PDMR. All PDCs were thawed and cultured in Matrigel-coated flasks prepared with a working solution of 1X Ham's F-12 nutrient mix, without supplementation (Invitrogen, cat. 11765054), 100 U/mL penicillin-streptomycin (Invitrogen, cat. 15140122), and 2.5% Matrigel (Corning Inc., cat. 354248) for the first three passages. The 857933-349-R-J2-PDC line was cultured in 6C/Colon 1B media, which includes advanced DMEM/F-12 (Thermo Fisher Scientific, cat. 12634028), 10 mM HEPES (Thermo Fisher Scientific, cat. 15630080), 1X GlutaMAX supplement (Thermo Fisher Scientific, cat. 35050061), 0.1 mg/mL primocin (InvivoGen, cat. ant-pm-2), 10% defined fetal bovine serum, heat inactivated (HyClone Laboratories Inc., cat. SH30070.03HI), 50% L-WRN conditioned media (ATCC, cat. CRL-3276), 1.25 mM N-Acetyl-L-cysteine (Sigma-Aldrich, cat. A9165), 10 mM nicotinamide (Sigma-Aldrich, cat. N0636), 1X B-27 supplement (Thermo Fisher Scientific, cat. 17504044), 1X N-2 supplement (Thermo Fisher Scientific, cat. 17502048), 10 microM Y-27632 dihydrochloride (Tocris Bioscience, cat. 1254), and 50 ng/mL human EGF recombinant protein (Thermo Fisher Scientific, cat. PHG0311). The 485176-168-R4-J1-PDC line was cultured in Panc media, which includes all 6C/Colon 1B media components plus 100 ng/mL human FGF-10 (Thermo Fisher Scientific, cat. 100-26), 500 nM SB-431542 (Selleckchem, cat. S1067), and gastrin (Tocris, cat. 3006).
[…]

[1] = second compound 0.0316 µM, first compound 0.0316 µM
[2] = second compound 0.0316 µM, first compound 0.316 µM
[3] = second compound 0.1 µM, first compound 0.0316 µM
[4] = second compound 0.1 µM, first compound 0.316 µM
[5] = second compound 0.316 µM, first compound 0.0316 µM
[6] = second compound 0.316 µM, first compound 0.316 µM
[7] = second compound 1 µM, first compound 0.0316 µM
[8] = second compound 1 µM, first compound 0.316 µM
[9] = second compound 3.16 µM, first compound 0.0316 µM
[10] = second compound 3.16 µM, first compound 0.316 µM
[11] = second compound 10 µM, first compound 0.0316 µM
[12] = second compound 10 µM, first compound 0.316 µM
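Further: spheroids exposed to drugs for 7 days.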
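Wherever viability, T/C is given: 100% = DMSO vehicle control viability.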

## CC[C@@]1(O)C(=O)OCc2c1cc1n(c2=O)Cc2cc3c(CN(C)C)c(O)ccc3nc2-1 + Cc1[nH]c2ccc(F)cc2c1-c1nc2c3cccnc3c3ncccc3c2[nH]1
Second compound 0.0316 µM
  IC50: > 0.316 µM
Second compound 0.1 µM
  IC50: > 0.316 µM
Second compound 0.316 µM
  IC50: > 0.316 µM
Second compound 1 µM
  IC50: > 0.316 µM
Second compound 3.16 µM
  IC50: > 0.316 µM
Second compound 10 µM
  IC50: > 0.316 µM
Second compound 0.0316 µM, first compound 0.000999 µM
  viability, T/C: 97%
Second compound 0.0316 µM, first compound 0.00316 µM
  viability, T/C: 91.6%
Second compound 0.0316 µM, first compound 0.00999 µM
  viability, T/C: 88.2%
[1]
  viability, T/C: 93.9%
Second compound 0.0316 µM, first compound 0.0999 µM
  viability, T/C: 68.2%
[2]
  viability, T/C: 51.6%
Second compound 0.1 µM, first compound 0.000999 µM
  viability, T/C: 111%
Second compound 0.1 µM, first compound 0.00316 µM
  viability, T/C: 106%
Second compound 0.1 µM, first compound 0.00999 µM
  viability, T/C: 94.2%
[3]
  viability, T/C: 93.7%
Second compound 0.1 µM, first compound 0.0999 µM
  viability, T/C: 77.9%
[4]
  viability, T/C: 59.6%
Second compound 0.316 µM, first compound 0.000999 µM
  viability, T/C: 96.3%
Second compound 0.316 µM, first compound 0.00316 µM
  viability, T/C: 95%
Second compound 0.316 µM, first compound 0.00999 µM
  viability, T/C: 92.8%
[5]
  viability, T/C: 89.8%
Second compound 0.316 µM, first compound 0.0999 µM
  viability, T/C: 78%
[6]
  viability, T/C: 60.7%
Second compound 1 µM, first compound 0.000999 µM
  viability, T/C: 95.3%
Second compound 1 µM, first compound 0.00316 µM
  viability, T/C: 101%
Second compound 1 µM, first compound 0.00999 µM
  viability, T/C: 94.8%
[7]
  viability, T/C: 103%
Second compound 1 µM, first compound 0.0999 µM
  viability, T/C: 77.7%
[8]
  viability, T/C: 55.7%
Second compound 3.16 µM, first compound 0.000999 µM
  viability, T/C: 118%
Second compound 3.16 µM, first compound 0.00316 µM
  viability, T/C: 94.1%
Second compound 3.16 µM, first compound 0.00999 µM
  viability, T/C: 109%
[9]
  viability, T/C: 92.9%
Second compound 3.16 µM, first compound 0.0999 µM
  viability, T/C: 67.4%
[10]
  viability, T/C: 57.4%
Second compound 10 µM, first compound 0.000999 µM
  viability, T/C: 87.9%
Second compound 10 µM, first compound 0.00316 µM
  viability, T/C: 99.9%
Second compound 10 µM, first compound 0.00999 µM
  viability, T/C: 86.8%
[11]
  viability, T/C: 87.3%
Second compound 10 µM, first compound 0.0999 µM
  viability, T/C: 79.8%
[12]
  viability, T/C: 56.1%

## COc1ncnc(C2CC2)c1-c1ncc2cnn(Cc3ccc(-c4nc(C(F)(F)F)cn4C(C)C)cc3)c2n1 + Cc1cnc(CNC(=O)c2c(=O)c3ccc(N4CCCN(C)CC4)nc3n3c2sc2ccccc23)cn1
Second compound 0.0316 µM
  IC50: > 10 µM
Second compound 0.1 µM
  IC50: > 10 µM
Second compound 0.316 µM
  IC50: > 10 µM
Second compound 1 µM
  IC50: < 0.0316 µM
Second compound 3.16 µM
  IC50: < 0.0316 µM
Second compound 10 µM
  IC50: < 0.0316 µM
[1]
  viability, T/C: 90%
Second compound 0.0316 µM, first compound 0.1 µM
  viability, T/C: 73.9%
[2]
  viability, T/C: 86.6%
Second compound 0.0316 µM, first compound 1 µM
  viability, T/C: 67%
Second compound 0.0316 µM, first compound 3.16 µM
  viability, T/C: 79.1%
Second compound 0.0316 µM, first compound 10 µM
  viability, T/C: 76.1%
[3]
  viability, T/C: 67.3%
Second compound 0.1 µM, first compound 0.1 µM
  viability, T/C: 55.1%
[4]
  viability, T/C: 62.3%
Second compound 0.1 µM, first compound 1 µM
  viability, T/C: 51.5%
Second compound 0.1 µM, first compound 3.16 µM
  viability, T/C: 69%
Second compound 0.1 µM, first compound 10 µM
  viability, T/C: 62.1%
[5]
  viability, T/C: 55.5%
Second compound 0.316 µM, first compound 0.1 µM
  viability, T/C: 57.2%
[6]
  viability, T/C: 61.6%
Second compound 0.316 µM, first compound 1 µM
  viability, T/C: 53.1%
Second compound 0.316 µM, first compound 3.16 µM
  viability, T/C: 62.6%
Second compound 0.316 µM, first compound 10 µM
  viability, T/C: 48.5%
[7]
  viability, T/C: 42.4%
Second compound 1 µM, first compound 0.1 µM
  viability, T/C: 39.3%
[8]
  viability, T/C: 38.2%
Second compound 1 µM, first compound 1 µM
  viability, T/C: 36.1%
Second compound 1 µM, first compound 3.16 µM
  viability, T/C: 48.1%
Second compound 1 µM, first compound 10 µM
  viability, T/C: 33.2%
[9]
  viability, T/C: 27.5%
Second compound 3.16 µM, first compound 0.1 µM
  viability, T/C: 39.1%
[10]
  viability, T/C: 43.6%
Second compound 3.16 µM, first compound 1 µM
  viability, T/C: 42.6%
Second compound 3.16 µM, first compound 3.16 µM
  viability, T/C: 42.5%
Second compound 3.16 µM, first compound 10 µM
  viability, T/C: 37.4%
[11]
  viability, T/C: 29.4%
Second compound 10 µM, first compound 0.1 µM
  viability, T/C: 41.9%
[12]
  viability, T/C: 34.3%
Second compound 10 µM, first compound 1 µM
  viability, T/C: 32.9%
Second compound 10 µM, first compound 3.16 µM
  viability, T/C: 37.3%
Second compound 10 µM, first compound 10 µM
  viability, T/C: 32.8%
